# Laboratory results from ChEMBL document CHEMBL1127929, “The synthesis and serine -lactamase inhibitory activity of some phosphonamidate analogues of dipeptides” (1994).
# What was measured:
# [1] = molecular target: Beta-lactamase TEM (Escherichia coli) (UniProt P62593); experiment: Inhibitory activity against Escherichia coli TEM-1 serine beta-lactamase
# [2] = molecular target: Beta-lactamase (Enterobacter cloacae) (UniProt P05364); experiment: Compound was tested for the inhibitory activity against Enterobacter cloacae P99 serine beta-lactamase
# [3] = test system: Proteus mirabilis; experiment: Compound was tested for the inhibitory activity against Proteus mirabilis carbenicillinase
# [4] = molecular target: Beta-lactamase OXA-1 (Escherichia coli) (UniProt P13661); experiment: Compound was tested for the inhibitory activity against Escherichia coli OXA-1 serine beta-lactamase
# [5] = molecular target: T1, SHV-5 extended spectrum beta-lactamase (Escherichia coli) (UniProt Q6REX6); experiment: Compound was tested for the inhibitory activity against Escherichia coli SHV-5 serine beta-lactamase
# T1 sequence (whole entry): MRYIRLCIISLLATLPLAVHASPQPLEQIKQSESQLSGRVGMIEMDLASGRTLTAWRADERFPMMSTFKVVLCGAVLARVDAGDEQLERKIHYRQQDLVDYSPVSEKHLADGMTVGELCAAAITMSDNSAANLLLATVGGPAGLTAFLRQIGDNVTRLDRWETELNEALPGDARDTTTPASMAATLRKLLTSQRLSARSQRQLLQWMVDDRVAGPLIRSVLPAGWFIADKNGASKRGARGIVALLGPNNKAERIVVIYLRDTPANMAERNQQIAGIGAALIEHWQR
# [6] = molecular target: Beta-lactamase (Staphylococcus aureus) (UniProt P00807); experiment: Inhibitory activity against Staphylococcus aureus penicillinase
# [7] = molecular target: T2, Beta-lactamase PSE-4 (Pseudomonas aeruginosa) (UniProt P16897); experiment: Compound was tested for the inhibitory activity against Pseudomonas aeruginosa PSE-4 serine beta-lactamase
# T2 sequence (whole entry): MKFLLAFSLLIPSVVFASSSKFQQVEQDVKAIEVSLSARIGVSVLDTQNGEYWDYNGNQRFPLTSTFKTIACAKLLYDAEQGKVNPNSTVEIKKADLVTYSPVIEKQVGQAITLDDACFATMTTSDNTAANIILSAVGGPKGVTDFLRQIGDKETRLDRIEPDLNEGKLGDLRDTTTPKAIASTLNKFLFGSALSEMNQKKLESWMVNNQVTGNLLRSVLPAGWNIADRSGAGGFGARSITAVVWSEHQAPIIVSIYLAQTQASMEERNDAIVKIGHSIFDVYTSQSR
# [8] = molecular target: Beta-lactamase (Enterobacter cloacae) (UniProt P05364); experiment: Minimum inhibitory concentration of 10 ug/ml compound in combination with amoxycillin against Enterobacter cloacae N-1 organism; format: functional
# [9] = molecular target: Beta-lactamase (Enterobacter cloacae) (UniProt P05364)
# Description: Minimum inhibitory concentration of 4 ug/ml compound in combination with amoxycillin against Enterobacter cloacae N-1 organism
# [10] = molecular target: Beta-lactamase TEM (Escherichia coli) (UniProt P62593); experiment: Minimum inhibitory concentration of 4 ug/ml compound in combination with amoxycillin against Escherichia coli E96P organism; format: functional
# [11] = test system: Staphylococcus aureus; experiment: Minimum inhibitory concentration of 10 ug/ml compound in combination with amoxycillin against Staphylococcus aureus MB9 organism; format: functional
# [12] = molecular target: Beta-lactamase (Enterobacter cloacae) (UniProt P05364); remark: listed apart in the source
# Description: Minimum inhibitory concentration against Enterobacter cloacae N-1 organism
# [13] = test system: Staphylococcus aureus; experiment: Minimum inhibitory concentration of 4 ug/ml compound in combination with amoxycillin against Staphylococcus aureus MB9 organism; format: functional
# [14] = molecular target: Beta-lactamase (Enterobacter cloacae) (UniProt P05364); experiment: Minimum inhibitory concentration of 10 ug/ml compound in combination with amoxycillin against Enterobacter cloacae N-1 organism,; format: functional
# [15] = molecular target: Beta-lactamase TEM (Escherichia coli) (UniProt P62593)
# Description: Antibacterial activity against Escherichia coli E96P organism, activity expressed as MIC(minimum inhibitory concentration)
# [16] = test system: Staphylococcus aureus; experiment: Antibacterial activity against Staphylococcus aureus MB9 organism, activity expressed as MIC(minimum inhibitory concentration); format: functional
# [17] = molecular target: Beta-lactamase (Enterobacter cloacae) (UniProt P05364); remark: listed apart in the source
# Description: Antibacterial activity against Enterobacter cloacae N-1 organism, activity expressed as MIC(minimum inhibitory concentration)
# [18] = test system: Staphylococcus aureus; experiment: Minimum inhibitory concentration against Staphylococcus aureus MB9 organism; format: functional
# Sequence of Beta-lactamase TEM (Escherichia coli) (P62593 whole entry): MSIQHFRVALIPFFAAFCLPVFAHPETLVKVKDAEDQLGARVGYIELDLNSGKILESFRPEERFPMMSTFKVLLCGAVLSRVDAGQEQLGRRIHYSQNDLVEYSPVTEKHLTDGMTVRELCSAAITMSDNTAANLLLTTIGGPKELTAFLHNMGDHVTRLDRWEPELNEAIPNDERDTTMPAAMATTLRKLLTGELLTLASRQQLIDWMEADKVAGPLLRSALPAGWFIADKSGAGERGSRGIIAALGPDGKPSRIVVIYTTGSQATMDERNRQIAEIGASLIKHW
# Sequence of Beta-lactamase (Enterobacter cloacae) (P05364 21-381 limits assumed): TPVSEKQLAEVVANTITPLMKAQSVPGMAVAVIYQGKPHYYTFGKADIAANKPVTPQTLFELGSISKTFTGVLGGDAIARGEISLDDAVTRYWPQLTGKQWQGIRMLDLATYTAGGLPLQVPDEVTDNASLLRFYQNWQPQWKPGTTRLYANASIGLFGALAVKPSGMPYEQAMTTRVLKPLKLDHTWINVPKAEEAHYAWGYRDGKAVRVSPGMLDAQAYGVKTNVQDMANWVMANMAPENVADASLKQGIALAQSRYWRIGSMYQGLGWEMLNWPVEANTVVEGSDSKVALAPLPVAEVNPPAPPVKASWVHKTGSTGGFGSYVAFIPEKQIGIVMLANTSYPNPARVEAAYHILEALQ
# Sequence of Beta-lactamase (Staphylococcus aureus) (P00807 whole entry): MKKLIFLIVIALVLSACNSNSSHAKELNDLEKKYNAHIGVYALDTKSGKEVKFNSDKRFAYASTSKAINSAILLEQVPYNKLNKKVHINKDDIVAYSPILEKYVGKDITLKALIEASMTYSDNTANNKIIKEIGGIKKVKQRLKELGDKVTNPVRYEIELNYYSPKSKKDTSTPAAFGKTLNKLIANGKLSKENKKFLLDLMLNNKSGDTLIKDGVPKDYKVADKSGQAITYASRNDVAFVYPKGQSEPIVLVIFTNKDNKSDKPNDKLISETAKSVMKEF
# Sequence of Beta-lactamase OXA-1 (Escherichia coli) (P13661 whole entry): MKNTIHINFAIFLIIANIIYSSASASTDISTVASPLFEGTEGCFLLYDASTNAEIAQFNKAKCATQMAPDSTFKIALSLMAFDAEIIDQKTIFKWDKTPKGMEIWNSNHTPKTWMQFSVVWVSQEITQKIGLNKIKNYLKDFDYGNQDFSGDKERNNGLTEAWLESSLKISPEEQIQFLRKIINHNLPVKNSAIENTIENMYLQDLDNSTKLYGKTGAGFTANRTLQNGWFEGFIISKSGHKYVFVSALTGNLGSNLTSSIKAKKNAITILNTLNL
smiles,measurement,setting,value
O=C(NCP(=O)(O)N[C@H](Cc1ccccc1)C(=O)O)OCc1ccccc1,ID50,[1],> 100 µM
same,ID50,[2],3.8 µM
same,ID50,[3],> 100 µM
same,ID50,[4],> 100 µM
same,ID50,[5],> 100 µM
same,ID50,[6],> 100 µM
same,ID50,[7],> 100 µM
CC1(C)S[C@@H]2[C@H](NC(=O)C(N)c3ccc(O)cc3)C(=O)N2[C@H]1C(=O)O.O=C(O)CCNP(=O)(O)CNC(=O)OCc1ccccc1 (stereo partly specified),MIC,[8],44 µg/mL
CC1(C)S[C@@H]2[C@H](NC(=O)[C@H](N)c3ccc(O)cc3)C(=O)N2[C@H]1C(=O)O.O=C(O)[C@H]1/C(=C/CO)O[C@@H]2CC(=O)N21 [listing 1 of 2 here],MIC,[9],256 µg/mL
same,MIC,[10],16 µg/mL
COP(=O)(CNC(=O)OCc1ccccc1)N1CCC[C@H]1C(=O)O (stereo partly specified),ID50,[1],> 100 µM
same,ID50,[2],54 µM
same,ID50,[6],> 100 µM
COP(=O)(CNC(=O)OCc1ccccc1)N1CCC[C@@H]1C(=O)O (stereo partly specified),ID50,[1],> 100 µM
same,ID50,[2],67 µM
same,ID50,[6],> 100 µM
O=C(O)CCNP(=O)(O)CNC(=O)OCc1ccccc1,ID50,[1],> 50 µM
same,ID50,[2],0.87 µM
same,ID50,[3],> 100 µM
same,ID50,[4],14 µM
same,ID50,[5],33 µM
same,ID50,[6],> 25 µM
same,ID50,[7],> 100 µM
O=C(NCP(=O)(O)N[C@@H](C(=O)O)c1ccccc1)OCc1ccccc1,ID50,[1],> 100 µM
same,ID50,[2],4.16 µM
same,ID50,[3],> 100 µM
same,ID50,[4],> 100 µM
same,ID50,[5],> 100 µM
same,ID50,[6],> 100 µM
same,ID50,[7],> 100 µM
CC1(C)S[C@@H]2[C@H](NC(=O)C(N)c3ccc(O)cc3)C(=O)N2[C@H]1C(=O)O.O=C(NCP(=O)([O-])N[C@@H](Cc1ccccc1)C(=O)[O-])OCc1ccccc1.[Li+].[Li+],MIC,[11],64 µg/mL
O=C(O)CC(NP(=O)(O)CNC(=O)OCc1ccccc1)c1ccccc1 (stereo unspecified),ID50,[1],> 50 µM
same,ID50,[2],0.87 µM
same,ID50,[3],> 100 µM
same,ID50,[4],46 µM
same,ID50,[5],63 µM
same,ID50,[6],> 35 µM
same,ID50,[7],83 µM
CC1(C)S[C@@H]2[C@H](NC(=O)C(N)c3ccc(O)cc3)C(=O)N2[C@H]1C(=O)O.O=C(NCP(=O)([O-])NC(C(=O)[O-])c1ccccc1)OCc1ccccc1.[Li+].[Li+] (stereo unspecified),MIC,[11],64 µg/mL
O=C(O)CNP(=O)(O)CNC(=O)OCc1ccccc1,ID50,[1],> 100 µg/mL
same,ID50,[2],2.29 µg/mL
same,ID50,[3],> 100 µM
same,ID50,[4],30 µM
same,ID50,[5],> 100 µM
same,ID50,[6],> 100 µg/mL
same,ID50,[7],> 100 µM
CC1(C)S[C@@H]2[C@H](NC(=O)C(N)c3ccc(O)cc3)C(=O)N2[C@H]1C(=O)O.O=C(NCP(=O)(O)N[C@@H](Cc1ccccc1)C(=O)O)OCc1ccccc1,MIC,[8],128 µg/mL
CC1(C)S[C@@H]2[C@H](NC(=O)[C@H](N)c3ccc(O)cc3)C(=O)N2[C@H]1C(=O)O,MIC,[12],256 µg/mL
CC1(C)S[C@@H]2[C@H](NC(=O)C(N)c3ccc(O)cc3)C(=O)N2[C@H]1C(=O)O.O=C(NCP(=O)(O)NC(C(=O)O)c1ccccc1)OCc1ccccc1 (stereo unspecified),MIC,[8],32 µg/mL
CC1(C)S[C@@H]2[C@H](NC(=O)C(N)c3ccc(O)cc3)C(=O)N2[C@H]1C(=O)O.O=C([O-])CNP(=O)([O-])CNC(=O)OCc1ccccc1.[Li+].[Li+] (stereo partly specified),MIC,[11],64 µg/mL
CC1(C)S[C@@H]2[C@H](NC(=O)[C@H](N)c3ccc(O)cc3)C(=O)N2[C@H]1C(=O)O.O=C(O)[C@H]1/C(=C/CO)O[C@@H]2CC(=O)N21 [listing 2 of 2 here],MIC,[13],0.12 µg/mL
O=C(O)CNCP(=O)(O)CNC(=O)OCc1ccccc1,ID50,[1],> 100 µM
same,ID50,[2],> 100 µM
same,ID50,[6],> 100 µM
CC1(C)S[C@@H]2[C@H](NC(=O)C(N)c3ccc(O)cc3)C(=O)N2[C@H]1C(=O)O.O=C(O)CNP(=O)(O)CNC(=O)OCc1ccccc1 (stereo partly specified),MIC,[14],32 µg/mL
CC1(C)S[C@@H]2[C@H](NC(=O)C(N)c3ccc(O)cc3)C(=O)N2[C@H]1C(=O)O.O=C([O-])CCNP(=O)([O-])CNC(=O)OCc1ccccc1.[Li+].[Li+] (stereo partly specified),MIC,[11],32 µg/mL
O=C(O)[C@H]1/C(=C/CO)O[C@@H]2CC(=O)N21 [CLAVULANIC ACID],MIC,[15],32 µg/mL
same,ID50,[1],0.315 µM
same,ID50,[2],310 µM
same,ID50,[3],0.51 µM
same,ID50,[4],3.4 µM
same,MIC,[16],32 µg/mL
same,ID50,[5],0.013 µM
same,MIC,[17],32 µg/mL
same,ID50,[6],0.38 µM
same,ID50,[7],0.235 µM
CC1(C)S[C@@H]2[C@H](NC(=O)C(N)c3ccc(O)cc3)C(=O)N2[C@H]1C(=O)O.O=C([O-])CC(NP(=O)([O-])CNC(=O)OCc1ccccc1)c1ccccc1.[Li+].[Li+] (stereo unspecified),MIC,[11],8 µg/mL
CC1(C)S[C@@H]2[C@H](NC(=O)C(N)c3ccc(O)cc3)C(=O)N2[C@H]1C(=O)O.O=C(O)CC(NP(=O)(O)CNC(=O)OCc1ccccc1)c1ccccc1 (stereo unspecified),MIC,[8],16 µg/mL
CC1(C)S[C@@H]2[C@H](NC(=O)[C@H](N)c3ccc(O)cc3)C(=O)N2[C@H]1C(=O)O [AMOXICILLIN],MIC,[18],256 µg/mL
CC1(C)S[C@@H]2[C@H](NC(=O)C(N)c3ccc(O)cc3)C(=O)N2[C@H]1C(=O)O.O=C(NCP(=O)(O)N[C@H](Cc1ccccc1)C(=O)O)OCc1ccccc1,MIC,[8],128 µg/mL
O=C(NCP(=O)(O)N[C@@H](Cc1ccccc1)C(=O)O)OCc1ccccc1,ID50,[1],> 50 µM
same,ID50,[2],0.75 µM
same,ID50,[3],> 100 µM
same,ID50,[4],60 µM
same,ID50,[5],> 100 µM
same,ID50,[6],> 33 µM
same,ID50,[7],15 µM
CC1(C)S[C@@H]2[C@H](NC(=O)C(N)c3ccc(O)cc3)C(=O)N2[C@H]1C(=O)O.O=C(NCP(=O)([O-])N[C@H](Cc1ccccc1)C(=O)[O-])OCc1ccccc1.[Li+].[Li+],MIC,[11],64 µg/mL
COP(=O)(CNC(=O)OCc1ccccc1)N1CSC(C)(C)[C@@H]1C(=O)O (stereo partly specified),ID50,[1],> 100 µM
same,ID50,[2],> 100 µM
same,ID50,[6],> 100 µM
